Data taken from paper PMC11966596, “Perturbation-Modulated Native Mass Spectrometry Excludes a Nonspecific Drug Target Protein Binder Based on Conformation Stability Change” (Analytical Chemistry, 2025).

Legend:
lysozyme = target: T1, lysozyme (Gallus gallus, UniProt P00698); experiment: native OPP-ESI-MS, charge state distribution; format: binding; settings: 100 μM protein, 1 mM ligand; 25 mM ammonium acetate; OPP solvent 10 mM NH4Ac
T1 construct: gene LYZ

[1] = target: DHFR (recombinant human DHFR) (Homo sapiens, UniProt P00374); settings: 5 μM his-tagged protein; 100 mM ammonium acetate; co-purified NADPH present
Sequence of DHFR (recombinant human DHFR) (P00374 whole entry): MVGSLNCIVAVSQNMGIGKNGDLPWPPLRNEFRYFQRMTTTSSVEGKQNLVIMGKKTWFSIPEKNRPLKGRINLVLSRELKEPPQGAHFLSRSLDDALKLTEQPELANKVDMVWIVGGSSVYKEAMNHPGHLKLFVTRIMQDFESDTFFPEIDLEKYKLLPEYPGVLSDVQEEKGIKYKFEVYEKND

T1 sequence (P00698 19-147): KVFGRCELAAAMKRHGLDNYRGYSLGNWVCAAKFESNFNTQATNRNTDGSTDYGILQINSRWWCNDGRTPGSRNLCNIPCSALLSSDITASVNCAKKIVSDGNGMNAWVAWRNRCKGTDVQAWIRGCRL

Compound	R (bound/unbound protein ratio) (lysozyme)	% binding at 100 μM [1] [%]
CC(=O)N[C@H]1[C@H](O[C@H]2[C@H](O)[C@@H](NC(C)=O)C(O)O[C@@H]2CO)O[C@H](CO)[C@@H](O[C@@H]2O[C@H](CO)[C@@H](O)[C@H](O)[C@H]2NC(C)=O)[C@@H]1O (some centres unmarked) [NTAC]	0.59	
Nc1nc(N)c2nc(CNc3ccc(C(=O)N[C@@H](CCC(=O)O)C(=O)O)cc3)cnc2n1 [aminopterin]		100
